In US20130237533A1, “CDK Inhibitors” (G1 THERAPEUTICS, INC., priority 2010, published 2013):

These compounds were tested against CDK2/cyclinE (Homo sapiens, UniProt P24941) (assay: Caliper LabChip kinase enzymatic assay, CDK2/cyclinE). Settings: Table 2, class symbols; read-out: CDK2/CycE IC50.
Type: biochemical
Procedure: Kinase enzymatic reactions were performed in 384-well microplates using a 12-channel Caliper LabChip instrument as a detection device. […] As substrate and product are separated, two peaks of fluorescence are observed. Change in the relative fluorescence intensity of the substrate and product peaks is the parameter measured, reflecting enzyme activity. In the presence of an inhibitor, the ratio between product and substrate is altered. The signal of the product decreases, while the signal of the substrate increases.
Potential inhibitor compounds (as HCl salts) were tested using 12-point dose response curves in single point at the Km, for ATP. The IC50 of each compound was determined using GraphPad Prism.

| Structure (SMILES) | IC50 |
| --- | --- |
| O=C1NC[C@H](c2ccccc2)n2c1cc1cnc(Nc3ccc(N4CCNCC4)cn3)nc12 [Compound 23] | 0.1 to 1 µM |
| O=C1NCC2(CCCC2)n2c1cc1cnc(Nc3ccc(N4CCOCC4)cn3)nc12 [Compound 32] | 1 to 100 µM |
| O=C1NCC2(CCCC2)n2c1cc1cnc(Nc3ccc(N4CCOCC4)cc3)nc12 [Compound 34] | 0.01 to 0.1 µM |
| CC(C)C[C@H]1CNC(=O)c2cc3cnc(Nc4ccc(N5CCN(C)CC5)cn4)nc3n21 [Compound 12] | 1 to 100 µM |
| CC(C)C1CNC(=O)c2cc3cnc(Nc4ccc(N5CCNCC5)cn4)nc3n21 (centres unmarked) [Compound 8] | 1 to 100 µM |
| CC(C)CC1CNC(=O)c2cc3cnc(Nc4ccc(N5CCNCC5)cn4)nc3n21 (centres unmarked) [Compound 46] | 1 to 100 µM |
| O=C1NCCn2c1cc1cnc(Nc3ccc(N4CCNCC4)cn3)nc12 [Compound 3] | > 100 µM |
| CC(C)(C)[C@H]1CNC(=O)c2cc3cnc(Nc4ccc(N5CCNCC5)cn4)nc3n21 [Compound 20] | 0.1 to 1 µM |
| CC(C)N1CCN(c2ccc(Nc3ncc4cc5n(c4n3)C3(CCCC3)CNC5=O)nc2)CC1 [Compound 35] | 1 to 100 µM |
| CN1CCN(c2ccc(Nc3ncc4cc5n(c4n3)[C@@H](c3ccccc3)CNC5=O)nc2)CC1 [Compound 22] | 1 to 100 µM |
| CC(C)CN1CCN(c2ccc(Nc3ncc4cc5n(c4n3)C3(CCCC3)CNC5=O)nc2)CC1 [Compound 36] | 1 to 100 µM |
| O=C1NCC2(CCCC2)n2c1cc1cnc(Nc3ccc(N4CCNCC4)cn3)nc12 [Compound 30] | 1 to 100 µM |
| CC1(C)CNC(=O)c2cc3cnc(Nc4ccc(N5CCNCC5)cn4)nc3n21 [Compound 26] | 1 to 100 µM |
| O=C1NCC2(CCCC2)n2c1cc1cnc(Nc3ccc(N4CCSCC4)cn3)nc12 [Compound 41] | 1 to 100 µM |
| O=C1NCC2(CCCC2)n2c1cc1cnc(Nc3ccc(N4CCC(N5CCCCC5)CC4)cn3)nc12 [Compound 40] | 1 to 100 µM |
| CN1CCN(c2ccc(Nc3ncc4cc5n(c4n3)C3(CCCC3)CNC5=O)nc2)CC1 [Compound 29] | 1 to 100 µM |
| O=C1NCC2(CCCC2)n2c1cc1cnc(Nc3ccc(N4CCC(N5CCOCC5)CC4)cn3)nc12 [Compound 39] | 1 to 100 µM |
| CCC(C)[C@H]1CNC(=O)c2cc3cnc(Nc4ccc(N5CCN(C)CC5)cn4)nc3n21 (some centres unmarked) [Compound 16] | 1 to 100 µM |
| CC(C)[C@@H]1CNC(=O)c2cc3cnc(Nc4ccc(N5CCNCC5)cn4)nc3n21 [Compound 9] | 1 to 100 µM |
| CC(C)C[C@H]1CNC(=O)c2cc3cnc(Nc4ccc(N5CCNCC5)cn4)nc3n21 [Compound 13] | 1 to 100 µM |
| CCC(C)[C@H]1CNC(=O)c2cc3cnc(Nc4ccc(N5CCNCC5)cn4)nc3n21 (some centres unmarked) [Compound 17] | 1 to 100 µM |
| O=C1NCC2(CCCC2)n2c1cc1cnc(Nc3ccc(N4CCCCC4)cn3)nc12 [Compound 38] | 1 to 100 µM |
| CC(C)[C@@H]1Cn2c(cc3cnc(Nc4ccc(N5CCNCC5)cn4)nc32)C(=O)N1 [Compound 25] | 1 to 100 µM |
| O=C1NCC2(CCCC2)n2c1cc1cnc(Nc3ccc(N4CCOCC4)nn3)nc12 [Compound 33] | 1 to 100 µM |
| CC(C)[C@H]1CNC(=O)c2cc3cnc(Nc4ccc(N5CCNCC5)cn4)nc3n21 [Compound 10] | 1 to 100 µM |
| CN1C[C@H](C(C)(C)C)n2c(cc3cnc(Nc4ccc(N5CCNCC5)cn4)nc32)C1=O [Compound 21] | 1 to 100 µM |
| CC(C)[C@H]1Cn2c(cc3cnc(Nc4ccc(N5CCNCC5)cn4)nc32)C(=O)N1 [Compound 24] | 1 to 100 µM |
| CC1CN(c2ccc(Nc3ncc4cc5n(c4n3)C3(CCCC3)CNC5=O)nc2)CC(C)O1 (centres unmarked) [Compound 37] | 1 to 100 µM |

Same assay, conditions: enzyme 0.22 nM, (at the Km for ATP), one hour; 12-point dose response; compounds as HCl salts; read-out: CDK2/cyclinE IC50

| Structure (SMILES) | IC50 |
| --- | --- |
| O=C1NCCn2c1cc1cnc(Nc3ccc(N4CCNCC4)cn3)nc12 [Compound 3] | > 100 µM |
